≈ marks a conversion by molar mass, not a printed value. Read-outs that look alike come from different tables or passages of the source.
Key:
[1] = test system: Staphylococcus aureus CCM 4516/08; test: Antibacterial microdilution broth MIC, S. aureus; format: cell-based
[2] = test system: Staphylococcus epidermidis H 6966/08; test: Antibacterial microdilution broth MIC, S. epidermidis; format: cell-based
[3] = test system: Enterococcus faecalis J 14365/08; test: Antibacterial microdilution broth MIC, E. faecalis; format: cell-based; conditions: 48 h incubation, read-out: MIC EF 48 h
[4] = test system: Escherichia coli CCM 4517; test: Antibacterial microdilution broth MIC, E. coli; format: cell-based; conditions: 48 h incubation, read-out: MIC EC 48 h
[5] = test system: Pseudomonas aeruginosa CCM 1961; test: Antibacterial microdilution broth MIC, P. aeruginosa; format: cell-based; conditions: 48 h incubation, read-out: MIC PA 48 h
[6] = test system: Mycobacterium tuberculosis 331/88 (H37Rv); test: In vitro antimycobacterial MIC, M. tuberculosis; format: cell-based
[7] = test system: Mycobacterium avium 330/88; test: In vitro antimycobacterial MIC, M. avium; format: cell-based
[8] = test system: Mycobacterium kansasii 235/80; test: In vitro antimycobacterial MIC, M. kansasii 235/80; format: cell-based
M. kansasii 6509/96 = test: In vitro antimycobacterial MIC, M. kansasii clinical isolate; format: cell-based; conditions: Mycobacterium kansasii
[9] = test system: Candida albicans ATCC 44859; test: Antifungal microdilution broth MIC, C. albicans; format: cell-based
Candida tropicalis 156 = test: Antifungal microdilution broth MIC, C. tropicalis; format: cell-based
Candida krusei E28 = test: Antifungal microdilution broth MIC, C. krusei; format: cell-based; conditions: Pichia kudriavzevii
Candida glabrata 20/I = test: Antifungal microdilution broth MIC, C. glabrata; format: cell-based; conditions: Nakaseomyces glabratus, 48 h incubation, read-out: MIC CG 48 h
Trichosporon asahii 1188 = test: Antifungal microdilution broth MIC, T. asahii; format: cell-based
[10] = test system: Aspergillus fumigatus 231; test: Antifungal microdilution broth MIC, A. fumigatus; format: cell-based
[11] = test system: Lichtheimia corymbifera 272; test: Antifungal microdilution broth MIC, L. corymbifera; format: cell-based; conditions: Lichtheimia corymbifera, 272; 48 h incubation; read-out: MIC LC 48 h
[12] = test system: Trichophyton interdigitale 445; test: Antifungal microdilution broth MIC, T. interdigitale; format: cell-based
[13] = test system: yeasts (Candida sp., T. asahii); test: Antifungal activity against yeasts; format: cell-based; conditions: read-out: MIC for yeasts
[14] = test system: Klebsiella pneumoniae D 11750/08
[15] = test system: ESBL-positive Klebsiella pneumoniae J 14368/08
[16] = test system: Klebsiella pneumoniae D 11750/08; test: Antibacterial microdilution broth MIC, K. pneumoniae; conditions: 48 h incubation
[17] = Staphylococcus epidermidis, H6966/08, 48 h incubation, read-out: MIC SE 48 h
[18] = Enterococcus faecalis, J14365/08
[19] = Pseudomonas aeruginosa, CCM1961
[20] = 336 h, 14 d incubation, read-out: MIC Mtb. 331/88 14 d
[21] = 504 h, 21 d incubation, read-out: MIC Mtb. 331/88 21 d
[22] = 330/88, 336 h, 14 d incubation, read-out: MIC M. avium 330/88 14 d
[23] = 330/88, 504 h, 21 d incubation, read-out: MIC M. avium 330/88 21 d
[24] = 235/80, 168 h, 7 d incubation, read-out: MIC M. kansasii 235/80 7 d
[25] = 235/80, 336 h, 14 d incubation, read-out: MIC M. kansasii 235/80 14 d
[26] = 235/80, 504 h, 21 d incubation, read-out: MIC M. kansasii 235/80 21 d
[27] = 6509/96, 168 h, 7 d incubation, read-out: MIC M. kansasii 6509/96 7 d
[28] = 6509/96, 336 h, 14 d incubation, read-out: MIC M. kansasii 6509/96 14 d
[29] = 6509/96, 504 h, 21 d incubation, read-out: MIC M. kansasii 6509/96 21 d
[30] = Candida tropicalis, 156, 24 h, read-out: MIC CT 24 h
[31] = Candida tropicalis, 156, 48 h, read-out: MIC CT 48 h
[32] = E28, 24 h, read-out: MIC CK 24 h
[33] = E28, 48 h, read-out: MIC CK 48 h
[34] = Trichosporon asahii, 1188, 24 h, read-out: MIC TA 24 h
[35] = Trichosporon asahii, 1188, 48 h, read-out: MIC TA 48 h
[36] = Aspergillus fumigatus, 231, 48 h incubation, read-out: MIC AF 48 h
[37] = Trichophyton interdigitale, 445, 72 h, read-out: MIC TI 72 h
[38] = Trichophyton interdigitale, 445, 120 h, read-out: MIC TI 120 h
[39] = Staphylococcus aureus, CCM4516, 48 h incubation, read-out: MIC SA 48 h
[40] = ATCC44859, 48 h incubation, read-out: MIC CA 48 h

O=S(=O)(Nc1ncccn1)c1ccc(N=Cc2cc(Cl)cc(Cl)c2O)cc1 [Compound 2m, 4-[(3,5-Dichloro-2-hydroxybenzylidene)amino]-N-(pyrimidin-2-yl)benzenesulfonamide]
MIC ([1]; Staphylococcus aureus, CCM4516, 24 h, read-out: MIC SA 24 h): 62.5 µM (≈ 26.5 µg/mL)
MIC ([1]; Staphylococcus aureus, CCM4516, 48 h, read-out: MIC SA 48 h): 62.5 µM (≈ 26.5 µg/mL)
MIC [2, 17]: 31.2 µM (≈ 13.2 µg/mL)
MIC [3, 18]: > 500 µM
MIC ([4]; Escherichia coli, CCM4517): > 500 µM
MIC [5, 19]: > 500 µM
MIC [6, 20]: 125 µM (≈ 52.9 µg/mL)
MIC [6, 21]: 125 µM (≈ 52.9 µg/mL)
MIC [7, 22]: 250 µM (≈ 106 µg/mL)
MIC [7, 23]: 500 µM (≈ 212 µg/mL)
MIC [8, 24]: 125 µM (≈ 52.9 µg/mL)
MIC [8, 25]: 250 µM (≈ 106 µg/mL)
MIC [8, 26]: 500 µM (≈ 212 µg/mL)
MIC (M. kansasii 6509/96; [27]): 62.5 µM (≈ 26.5 µg/mL)
MIC (M. kansasii 6509/96; [28]): 125 µM (≈ 52.9 µg/mL)
MIC (M. kansasii 6509/96; [29]): 250 µM (≈ 106 µg/mL)
MIC ([9]; ATCC44859, 24 h, read-out: MIC CA 24 h): 62.5 µM (≈ 26.5 µg/mL)
MIC ([9]; ATCC44859, 48 h, read-out: MIC CA 48 h): 62.5 µM (≈ 26.5 µg/mL)
MIC (Candida tropicalis 156; [30]): 125 µM (≈ 52.9 µg/mL)
MIC (Candida tropicalis 156; [31]): 125 µM (≈ 52.9 µg/mL)
MIC (Candida krusei E28; [32]): 62.5 µM (≈ 26.5 µg/mL)
MIC (Candida krusei E28; [33]): 62.5 µM (≈ 26.5 µg/mL)
MIC (Candida glabrata 20/I): 31.2 µM (≈ 13.2 µg/mL)
MIC (Trichosporon asahii 1188; [34]): 62.5 µM (≈ 26.5 µg/mL)
MIC (Trichosporon asahii 1188; [35]): 62.5 µM (≈ 26.5 µg/mL)
MIC [10, 36]: 250 µM (≈ 106 µg/mL)
MIC [11]: 500 µM (≈ 212 µg/mL)
MIC [12, 37]: 125 µM (≈ 52.9 µg/mL)
MIC [12, 38]: 125 µM (≈ 52.9 µg/mL)
MIC [13]: 31.2 to 125 µM (≈ 13.2 to 52.9 µg/mL)
MIC KP 24 h [14]: >500 µM
MIC KP 48 h [14]: >500 µM
MIC KP-E 24 h [15]: 500 µM (≈ 212 µg/mL)
MIC KP-E 48 h ([15]; 48 h): 500 µM (≈ 212 µg/mL)

O=S(=O)(Nc1ncccn1)c1ccc(N=Cc2cc(O)ccc2O)cc1 [Compound 2i, 4-[(2,5-Dihydroxybenzylidene)amino]-N-(pyrimidin-2-yl)benzenesulfonamide]
MIC ([1]; Staphylococcus aureus, CCM 4516 / MRSA, S. aureus incl. MRSA, incubation time not given, read-out: MIC for S. aureus): 31.2 µM (≈ 11.6 µg/mL)
MIC [1, 39]: 31.2 µM (≈ 11.6 µg/mL)
MIC [2, 17]: 15.6 µM (≈ 5.79 µg/mL)
MIC ([2]; Staphylococcus epidermidis, H6966/08, incubation time not given, read-out: MIC for S. epidermidis): 15.6 µM (≈ 5.79 µg/mL)
MIC [3, 18]: 250 µM (≈ 92.6 µg/mL)
MIC ([4]; Escherichia coli, CCM4517): 500 µM (≈ 185 µg/mL)
MIC [5, 19]: 500 µM (≈ 185 µg/mL)
MIC [6, 20]: 125 µM (≈ 46.3 µg/mL)
MIC [6, 21]: 125 µM (≈ 46.3 µg/mL)
MIC [7, 22]: 500 µM (≈ 185 µg/mL)
MIC [7, 23]: 1000 µM (≈ 370 µg/mL)
MIC [8, 24]: 62.5 µM (≈ 23.1 µg/mL)
MIC [8, 25]: 125 µM (≈ 46.3 µg/mL)
MIC [8, 26]: 125 µM (≈ 46.3 µg/mL)
MIC (M. kansasii 6509/96; [27]): 62.5 µM (≈ 23.1 µg/mL)
MIC (M. kansasii 6509/96; [28]): 125 µM (≈ 46.3 µg/mL)
MIC (M. kansasii 6509/96; [29]): 125 µM (≈ 46.3 µg/mL)
MIC [9, 40]: 15.6 µM (≈ 5.79 µg/mL)
MIC (Candida tropicalis 156; Candida tropicalis, 156, 48 h incubation, read-out: MIC CT 48 h): 15.6 µM (≈ 5.79 µg/mL)
MIC (Candida krusei E28; E28, 48 h incubation, read-out: MIC CK 48 h): 31.2 µM (≈ 11.6 µg/mL)
MIC (Candida glabrata 20/I): 15.6 µM (≈ 5.79 µg/mL)
MIC (Trichosporon asahii 1188; Trichosporon asahii, 1188, 48 h incubation, read-out: MIC TA 48 h): 15.6 µM (≈ 5.79 µg/mL)
MIC ([10]; Aspergillus fumigatus, 231, 24 h, read-out: MIC AF 24 h): 125 µM (≈ 46.3 µg/mL)
MIC ([10]; Aspergillus fumigatus, 231, 48 h, read-out: MIC AF 48 h): 125 µM (≈ 46.3 µg/mL)
MIC [11]: 500 µM (≈ 185 µg/mL)
MIC ([12]; Trichophyton interdigitale, 445, 72 h incubation, read-out: MIC TI 72 h): 1.95 µM (≈ 0.722 µg/mL)
MIC ([12]; Trichophyton interdigitale, 445, 120 h incubation, read-out: MIC TI 120 h): 1.95 µM (≈ 0.722 µg/mL)
MIC ([13]; range over Candida sp. and T. asahii): 15.6 to 31.2 µM (≈ 5.79 to 11.6 µg/mL)
MIC KP 24 h [14]: >500 µM
MIC KP 48 h [14]: >500 µM
MIC KP-E 24 h [15]: >500 µM
MIC KP-E 48 h ([15]; 48 h): >500 µM

O=S(=O)(Nc1ncccn1)c1ccc(N=Cc2cc(Cl)cc(Br)c2O)cc1 [Compound 2n, 4-[(3-Bromo-5-chloro-2-hydroxybenzylidene)amino]-N-(pyrimidin-2-yl)benzenesulfonamide]
MIC [1, 39]: 31.2 µM (≈ 14.6 µg/mL)
MIC [2, 17]: 31.2 µM (≈ 14.6 µg/mL)
MIC [3, 18]: > 500 µM
MIC ([4]; Escherichia coli, CCM4517): 500 µM (≈ 234 µg/mL)
MIC [5, 19]: > 500 µM
MIC [6, 20]: 125 µM (≈ 58.5 µg/mL)
MIC [6, 21]: 125 µM (≈ 58.5 µg/mL)
MIC [7, 22]: 250 µM (≈ 117 µg/mL)
MIC [7, 23]: 500 µM (≈ 234 µg/mL)
MIC [8, 24]: 125 µM (≈ 58.5 µg/mL)
MIC [8, 25]: 125 µM (≈ 58.5 µg/mL)
MIC [8, 26]: 250 µM (≈ 117 µg/mL)
MIC (M. kansasii 6509/96; [27]): 62.5 µM (≈ 29.2 µg/mL)
MIC (M. kansasii 6509/96; [28]): 125 µM (≈ 58.5 µg/mL)
MIC (M. kansasii 6509/96; [29]): 125 µM (≈ 58.5 µg/mL)
MIC [9, 40]: 31.2 µM (≈ 14.6 µg/mL)
MIC (Candida tropicalis 156; [30]): 62.5 µM (≈ 29.2 µg/mL)
MIC (Candida tropicalis 156; [31]): 62.5 µM (≈ 29.2 µg/mL)
MIC (Candida krusei E28; [32]): 62.5 µM (≈ 29.2 µg/mL)
MIC (Candida krusei E28; [33]): 62.5 µM (≈ 29.2 µg/mL)
MIC (Candida glabrata 20/I): 31.2 µM (≈ 14.6 µg/mL)
MIC (Trichosporon asahii 1188; [34]): 62.5 µM (≈ 29.2 µg/mL)
MIC (Trichosporon asahii 1188; [35]): 62.5 µM (≈ 29.2 µg/mL)
MIC [10, 36]: 250 µM (≈ 117 µg/mL)
MIC [11]: 500 µM (≈ 234 µg/mL)
MIC [12, 37]: 62.5 µM (≈ 29.2 µg/mL)
MIC [12, 38]: 62.5 µM (≈ 29.2 µg/mL)
MIC [13]: 31.2 to 125 µM (≈ 14.6 to 58.5 µg/mL)
MIC KP 24 h [14]: >500 µM
MIC KP 48 h [14]: >500 µM
MIC KP-E 24 h [15]: 500 µM (≈ 234 µg/mL)
MIC KP-E 48 h ([15]; 48 h): 500 µM (≈ 234 µg/mL)

Bacitracin [reference compound]
MIC ([1]; 48 h incubation, read-out: MIC SA 48 h): 15.62 µM
MIC ([2]; 48 h incubation, read-out: MIC SE 48 h): 31.25 µM
MIC [3]: 62.5 µM
MIC [4]: >500 µM
MIC [5]: >500 µM
MIC KP-E 48 h ([15]; 48 h incubation): >500 µM
MIC KP 48 h [16]: >500 µM

From article PMC6151383 (Molecules : A Journal of Synthetic Chemistry and Natural …, 2017)
